Results from patent publication US6706663B2, “Herbicidal 3-heterocyclic substituted benzisothiazole and benzisoxazole compounds” (Wyeth, priority 2000, dated 2004).

How the values were obtained:
GALAP (Galium aparine) = test: Preemergence herbicidal evaluation; type: in vivo; settings: rated 4-5 weeks after treatment
In short: (§1)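 Scores (0–9) reflect visual comparison with control plants for stand, vigor, malformation, size and chlorosis. Seeds in potting soil received a post-planting spray of compound in aqueous acetone and grew in a greenhouse until assessment 4–5 weeks later.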

[1] = system: GLXMAW (Soybean, Williams); test: Postemergence herbicidal evaluation; type: in vivo, Glycine max, (L.) Merr. cv Williams; settings: for GLXMAW herbicidal rating: postemergence
In short: (§2)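 Seedlings grown about two weeks in flats, sprayed, then kept under standard greenhouse care. Rated visually 4–5 weeks after treatment on a 0–9 scale (stand, vigour, malformation, size, chlorosis, overall appearance) relative to untreated control; repeat tests averaged.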

[2] = system: ECHORC (Echinochloa oryzoides); test: Flooded paddy, preemergence weed control; type: in vivo, Echinochloa oryzoides (Ard.) Fritsch.; settings: rated 3-4 weeks after treatment, 0-9 rating scale
In short: (§3)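 Scoring used a 0-9 visual scale relative to control. Before that, seeds or propagules were planted shallowly in silt loam and flooded to 1.5–3 cm, a depth maintained throughout, with greenhouse care during the test.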

[3] = system: CYPSE (Cyperus serotinus); test: Flooded paddy, preemergence weed control; type: in vivo, Rottb.; settings: rated 3-4 weeks after treatment, 0-9 rating scale
In short: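 Seeds or propagules were planted 0.5 cm deep in silt loam and flooded to 1.5–3 cm. Compounds in 50/50 v/v aqueous/acetone were pipetted into the flood water at about 0.0080 to 0.1250 kg/ha. After 3–4 weeks in the greenhouse, effect was rated visually on a 0–9 scale versus untreated control.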

[4] = system: AMBEL (Ambrosia artemisifolia); test: Preemergence herbicidal evaluation; type: in vivo, L.; settings: rated 4-5 weeks after treatment
In short: as §1

[5] = system: CHEAL (Chenopodium album); test: Preemergence herbicidal evaluation; type: in vivo, L.; settings: rated 4-5 weeks after treatment
In short: as §1

[6] = system: CASOB (Cassia obtusifolia); test: Preemergence herbicidal evaluation; type: in vivo, L.; settings: rated 4-5 weeks after treatment
In short: as §1

ORYSAT (Rice, Tebonnet) [7] = test: Postemergence herbicidal evaluation; type: in vivo, Oryza sativa, (L.) Tebonnet; settings: for ORYSAT herbicidal rating: postemergence
In short: as §2

[8] = system: MOOVA (Monochoria vaginalis); test: Flooded paddy, preemergence weed control; type: in vivo, Presl.; settings: rated 3-4 weeks after treatment, 0-9 rating scale
In short: as §3

[9] = system: ABUTH (Abutilon theophrasti); test: Preemergence herbicidal evaluation; type: in vivo, Medic.; settings: rated 4-5 weeks after treatment
[10] = system: ECHCG (Echinochloa crus-galli); test: Preemergence herbicidal evaluation; type: in vivo, (L.) Beau; settings: rated 4-5 weeks after treatment
In short: as §1

SETVI (Setaria viridis) [11] = test: Preemergence herbicidal evaluation; type: in vivo, (L.) Beau; settings: rated 4-5 weeks after treatment
In short: as §1

[12] = system: TRZAWR (Wheat, Winter, cv Riband); test: Postemergence herbicidal evaluation; type: in vivo, Triticum aestivum; settings: for TRZAWR herbicidal rating: postemergence
In short: as §2

ZEAMX (Corn, Field) = test: Postemergence herbicidal evaluation; type: in vivo, Zea mays, L.; settings: for ZEAMX herbicidal rating: postemergence
In short: as §2

SETVI (Setaria viridis) [13] = test: Postemergence herbicidal evaluation; type: in vivo, (L.) Beau; settings: for SETVI herbicidal rating: postemergence
In short: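 Seedlings about two weeks old were sprayed with compound in 50/50 acetone/water plus 0.5% TWEEN 20, at the equivalent of about 0.0040 to 1.000 kg/ha. Plants were kept in a greenhouse and visually rated 0-9 against a control four to five weeks after treatment. Repeat tests were averaged.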

[14] = system: TRZAWR (Wheat, Winter, cv Riband); test: Preemergence herbicidal evaluation; type: in vivo, Triticum aestivum; settings: rated 4-5 weeks after treatment
In short: as §1

ORYSAT (Rice, Tebonnet) [15] = test: Preemergence herbicidal evaluation; type: in vivo, Oryza sativa, (L.) Tebonnet; settings: rated 4-5 weeks after treatment
[16] = system: IPOHE (Ipomoea hederacea); test: Postemergence herbicidal evaluation; type: in vivo, (L.) Jacq.; settings: for IPOHE herbicidal rating: postemergence
In short: as §2

[17] = system: ECHCG (Echinochloa crus-galli); test: Postemergence herbicidal evaluation; type: in vivo, (L.) Beau; settings: for ECHCG herbicidal rating: postemergence
In short: as §2

[18] = rate 0.0080 kg/ha, listed as 82
[19] = rate 0.0320 kg/ha, listed as 82
[20] = rate 0.1250 kg/ha, listed as 82

1-methyl-3-[3-(1,3-oxathian-2-yl)-1,2-benzisothiazol-5-yl]-6-(trifluoromethyl)uracil S′,S′-dioxide [Compound 35]
8.0: ECHCG preemergence herbicidal rating ([10]; Rate 0.0620 kg/ha) | Preemergence herbicidal rating SETVI (SETVI (Setaria viridis) [11]; Rate 0.0620 kg/ha)
4.5: Preemergence herbicidal rating ABUTH ([9]; Rate 0.0620 kg/ha)
6.0: Preemergence herbicidal rating ECHCG ([10]; Rate 0.1250 kg/ha)
2.5: ORYSAT herbicidal rating (ORYSAT (Rice, Tebonnet) [7]; rate 0.0620 kg/ha)
0.0: herbicidal rating, ECHORC ([2]; rate 0.0080 kg/ha) | Preemergence herbicidal rating CASOB ([6]; Rate 0.0620 kg/ha) | herbicidal rating, MOOVA ([8]; rate 0.0080 kg/ha) | Preemergence herbicidal rating TRZAWR ([14]; Rate 0.0620 kg/ha) | Preemergence herbicidal rating TRZAWR ([14]; Rate 0.1250 kg/ha) | Preemergence herbicidal rating TRZAWR ([14]; Rate 0.2500 kg/ha) | Preemergence herbicidal rating ORYSAT (ORYSAT (Rice, Tebonnet) [15]; Rate 0.0620 kg/ha) | Preemergence herbicidal rating ORYSAT (ORYSAT (Rice, Tebonnet) [15]; Rate 0.1250 kg/ha) | Preemergence herbicidal rating ORYSAT (ORYSAT (Rice, Tebonnet) [15]; Rate 0.2500 kg/ha)
4.0: GLXMAW herbicidal rating ([1]; rate 0.0320 kg/ha) | SETVI herbicidal rating (SETVI (Setaria viridis) [13]; rate 0.0620 kg/ha) | Postemergence herbicidal rating, ECHCG ([17]; rate 0.0620 kg/ha)
2.0: herbicidal rating, CYPSE ([3]; rate 0.0320 kg/ha) | Preemergence herbicidal rating CASOB ([6]; Rate 0.2500 kg/ha) | ECHCG herbicidal rating ([17]; rate 0.0320 kg/ha)
7.0: Preemergence herbicidal rating GALAP (GALAP (Galium aparine); Rate 0.0620 kg/ha) | herbicidal rating, ECHORC [2, 18] | CASOB preemergence herbicidal rating ([6]; Rate 0.0620 kg/ha) | CASOB preemergence herbicidal rating ([6]; Rate 0.1250 kg/ha) | Postemergence herbicidal rating, TRZAWR ([12]; rate 0.0320 kg/ha) | TRZAWR preemergence herbicidal rating ([14]; Rate 0.0620 kg/ha) | IPOHE herbicidal rating ([16]; rate 0.0320 kg/ha)
8.5: herbicidal rating, MOOVA [8, 18]
3.5: Preemergence herbicidal rating AMBEL ([4]; Rate 0.0620 kg/ha)
7.5: herbicidal rating, ECHORC ([2]; rate 0.1250 kg/ha) | Preemergence herbicidal rating ECHCG ([10]; Rate 0.2500 kg/ha) | Postemergence herbicidal rating, TRZAWR ([12]; rate 0.0620 kg/ha) | Postemergence herbicidal rating, ZEAMX (ZEAMX (Corn, Field); rate 0.0320 kg/ha) | Postemergence herbicidal rating, ZEAMX (ZEAMX (Corn, Field); rate 0.0620 kg/ha)
3.0: Preemergence herbicidal rating ECHCG ([10]; Rate 0.0620 kg/ha) | ZEAMX herbicidal rating (ZEAMX (Corn, Field); rate 0.0320 kg/ha) | ZEAMX herbicidal rating (ZEAMX (Corn, Field); rate 0.0620 kg/ha) | SETVI herbicidal rating (SETVI (Setaria viridis) [13]; rate 0.0320 kg/ha) | ECHCG herbicidal rating ([17]; rate 0.0620 kg/ha) | Postemergence herbicidal rating, ECHCG ([17]; rate 0.0320 kg/ha)
9.0: GALAP preemergence herbicidal rating (GALAP (Galium aparine); Rate 0.0620 kg/ha) | GALAP preemergence herbicidal rating (GALAP (Galium aparine); Rate 0.1250 kg/ha) | Preemergence herbicidal rating GALAP (GALAP (Galium aparine); Rate 0.1250 kg/ha) | GALAP preemergence herbicidal rating (GALAP (Galium aparine); Rate 0.2500 kg/ha) | Preemergence herbicidal rating GALAP (GALAP (Galium aparine); Rate 0.2500 kg/ha) | Postemergence herbicidal rating, GLXMAW ([1]; rate 0.0320 kg/ha) | Postemergence herbicidal rating, GLXMAW ([1]; rate 0.0620 kg/ha) | herbicidal rating, ECHORC [2, 19] | herbicidal rating, ECHORC [2, 20] | herbicidal rating, CYPSE [3, 19] | herbicidal rating, CYPSE [3, 20] | AMBEL preemergence herbicidal rating ([4]; Rate 0.0620 kg/ha) | AMBEL preemergence herbicidal rating ([4]; Rate 0.1250 kg/ha) | AMBEL preemergence herbicidal rating ([4]; Rate 0.2500 kg/ha) | CHEAL preemergence herbicidal rating ([5]; Rate 0.0620 kg/ha) | Preemergence herbicidal rating CHEAL ([5]; Rate 0.0620 kg/ha) | CHEAL preemergence herbicidal rating ([5]; Rate 0.1250 kg/ha) | Preemergence herbicidal rating CHEAL ([5]; Rate 0.1250 kg/ha) | CHEAL preemergence herbicidal rating ([5]; Rate 0.2500 kg/ha) | Preemergence herbicidal rating CHEAL ([5]; Rate 0.2500 kg/ha) | CASOB preemergence herbicidal rating ([6]; Rate 0.2500 kg/ha) | herbicidal rating, MOOVA [8, 19] | herbicidal rating, MOOVA ([8]; rate 0.1250 kg/ha) | ABUTH preemergence herbicidal rating ([9]; Rate 0.0620 kg/ha) | ABUTH preemergence herbicidal rating ([9]; Rate 0.1250 kg/ha) | Preemergence herbicidal rating ABUTH ([9]; Rate 0.1250 kg/ha) | ABUTH preemergence herbicidal rating ([9]; Rate 0.2500 kg/ha) | Preemergence herbicidal rating ABUTH ([9]; Rate 0.2500 kg/ha) | ECHCG preemergence herbicidal rating ([10]; Rate 0.1250 kg/ha) | ECHCG preemergence herbicidal rating ([10]; Rate 0.2500 kg/ha) | SETVI preemergence herbicidal rating (SETVI (Setaria viridis) [11]; Rate 0.0620 kg/ha) | SETVI preemergence herbicidal rating (SETVI (Setaria viridis) [11]; Rate 0.1250 kg/ha) | Preemergence herbicidal rating SETVI (SETVI (Setaria viridis) [11]; Rate 0.1250 kg/ha) | SETVI preemergence herbicidal rating (SETVI (Setaria viridis) [11]; Rate 0.2500 kg/ha) | Preemergence herbicidal rating SETVI (SETVI (Setaria viridis) [11]; Rate 0.2500 kg/ha) | Postemergence herbicidal rating, SETVI (SETVI (Setaria viridis) [13]; rate 0.0320 kg/ha) | Postemergence herbicidal rating, SETVI (SETVI (Setaria viridis) [13]; rate 0.0620 kg/ha) | TRZAWR preemergence herbicidal rating ([14]; Rate 0.1250 kg/ha) | TRZAWR preemergence herbicidal rating ([14]; Rate 0.2500 kg/ha) | ORYSAT preemergence herbicidal rating (ORYSAT (Rice, Tebonnet) [15]; Rate 0.1250 kg/ha) | ORYSAT preemergence herbicidal rating (ORYSAT (Rice, Tebonnet) [15]; Rate 0.2500 kg/ha) | IPOHE herbicidal rating ([16]; rate 0.0620 kg/ha) | Postemergence herbicidal rating, IPOHE ([16]; rate 0.0320 kg/ha) | Postemergence herbicidal rating, IPOHE ([16]; rate 0.0620 kg/ha)
6.5: Preemergence herbicidal rating AMBEL ([4]; Rate 0.2500 kg/ha) | Postemergence herbicidal rating, ORYSAT (ORYSAT (Rice, Tebonnet) [7]; rate 0.0320 kg/ha) | Postemergence herbicidal rating, ORYSAT (ORYSAT (Rice, Tebonnet) [7]; rate 0.0620 kg/ha)
1.5: Preemergence herbicidal rating CASOB ([6]; Rate 0.1250 kg/ha) | ORYSAT herbicidal rating (ORYSAT (Rice, Tebonnet) [7]; rate 0.0320 kg/ha) | TRZAWR herbicidal rating ([12]; rate 0.0320 kg/ha) | TRZAWR herbicidal rating ([12]; rate 0.0620 kg/ha)
5.5: GLXMAW herbicidal rating ([1]; rate 0.0620 kg/ha) | herbicidal rating, ECHORC ([2]; rate 0.0320 kg/ha) | Preemergence herbicidal rating AMBEL ([4]; Rate 0.1250 kg/ha) | ORYSAT preemergence herbicidal rating (ORYSAT (Rice, Tebonnet) [15]; Rate 0.0620 kg/ha)
5.0: herbicidal rating, CYPSE ([3]; rate 0.1250 kg/ha) | herbicidal rating, MOOVA ([8]; rate 0.0320 kg/ha)
